Consider one compound from US8969578B2, “Inhibitors of STAT3” (University of Central Florida Research Foundation, Inc., priority 2008, dated 2015).

The test relates to NIH3T3/vSrc cells. The test is described as follows: WST-1 cell viability/proliferation assay, NIH3T3/vSrc. The class given is cell-based, mouse. How it is done:
Initial in vitro whole-cell experiments were conducted against normal mouse NIH-3T3 fibroblasts and v-src-transformed counterparts (NIH-3T3/v-src) that harbor aberrant STAT3. Inhibitor effects upon cell viability, proliferation, and cytotoxicity were assessed through WST-1, a cell proliferation reagent that measures the metabolic activity of viable cells. […] It is assumed that the predominantly hydrophobic nature of these compounds facilitated successful permeation of the cell membrane despite the phosphate.
In general terms: Formazan colour is commonly taken as a measure of viable cells.

As for `CC(C)C[C@H](NC(=O)[C@H](Cc1ccc(OP(=O)(O)O)cc1)NC(=O)c1ccc(C#N)cc1)C(=O)O` [ISS610], the “inhibitor concentration required for suppression in whole cells” value was “millimolar concentrations”.
